Laboratory results from patent US20210179577A1, “AROMATIC SULFONAMIDE DERIVATIVES FOR THE TREATMENT OF ISCHEMIC STROKE” (Bayer Aktiengesellschaft, priority 2017, published 2021).
Where “and” joins values, the source holds several entries; their conditions need not be identical. Equal values may be shown once.

What was measured:
Type in all cases: cell-based
[1] = target: T1, hP2X4 (Homo sapiens, UniProt Q99571); assay: Human P2X4 HEK Cell Electrophysiology Assay B (QPatch); conditions: ATP 5 microM, -90 mV; read-out: Human P2X4 HEK Cells (QPatch Electrophysiology) avg IC50
T1 construct: expressed in transfected cells; host or cells: HEK-293 mito-Photina, clone 2a/4
T1 sequence (Q99571 1-388): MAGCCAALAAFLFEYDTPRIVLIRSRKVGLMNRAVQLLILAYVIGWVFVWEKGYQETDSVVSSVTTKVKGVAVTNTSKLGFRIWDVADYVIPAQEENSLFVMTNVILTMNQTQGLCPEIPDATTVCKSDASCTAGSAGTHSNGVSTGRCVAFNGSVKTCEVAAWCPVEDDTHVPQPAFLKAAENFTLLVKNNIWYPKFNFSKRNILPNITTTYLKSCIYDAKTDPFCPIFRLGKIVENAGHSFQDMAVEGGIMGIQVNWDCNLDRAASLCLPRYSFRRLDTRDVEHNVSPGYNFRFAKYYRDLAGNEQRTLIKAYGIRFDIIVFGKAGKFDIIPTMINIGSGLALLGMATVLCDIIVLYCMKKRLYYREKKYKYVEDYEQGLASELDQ
Method: Cell culture conditions: HEK-293 mito-Photina pcDNA3(neo-)/pPURO N/pcDNA3_P2RX4, clone 2a/4 (HEK-293 mito-Photina/hP2RX4) cells were cultured in EMEM Minimum Essential Medium Eagle with Earl's salts Balanced Salt Solution (BioWhittaker cat. BE12-125F) supplemented with 5 mL of 200 mM Ultraglutaminel (BioWhittaker cat. BE17-605E/U1), 5 mL of 100× Penicillin/Streptomycin (BioWhittaker cat. DE17-602E; final concentration 1%), 4 mL of 50 mg/mL G418 (Sigma cat. G8168-100 mL; final concentration 400 μg/mL), 10 μL of 10 mg/mL Puromicin (InvivoGen cat. ant-pr-1; final concentration 0.2 μg/mL) and 50 mL of Fetal Bovine Serum (Sigma cat. F7524; final concentration 10%).
Experimentalprotocol: HEK-293 cell lines are seeded 72 or 96 hours before experiment, at a concentration of 5 or 2.5 million cells, respectively onto a T225 flask. Just before the experiments cells are washed twice with D-PBS w/o Ca2+/Mg2+(Euroclone cat. ECB4004L) and detached from the flask with trypsin-EDTA (Sigma, cat. T4174 diluted 1/10). Cells are then re-suspended in the suspension solution: 25 mL EX-CELL ACF CHO medium (Sigma, cat. C5467); 0.625 mL HEPES (BioWhittaker, cat. BE17-737E); 0.25 mL of 100× Penicillin/Streptomycin (BioWhittaker, cat. DE17-602E), 0.1 mL of Soybean Trypsin Inhibitor 10 mg/mL (Sigma, cat. T6522) and placed on the QPatch 16X.
Compound preparation and storage: Compound stock solutions (10 mM; 100% DMSO; stored at −20° C.) were used. Fresh solutions from stock (1 or 3 mM, 100% DMSO) were prepared just before the experiments (0.1% final DMSO concentration).
Patch clamp analysis with QPatch16X (FIG. 1): Standard whole-cell voltage clamp experiments are performed at room temperature using the multihole technology.
For the voltage clamp experiments on hP2X4, data are sampled at 2 KHz. After establishment of the seal and the passage in the whole cell configuration, the cells are held at −90 mV and the hP2X4 current is evoked by the agonist in the absence (vehicle period, i.e. 0.1% DMSO) or in the presence of the compound under investigation at increasing concentrations; see the application protocol in FIG. 1.
Output: the maximum inward current induced by the agonist (ATP 5 microM).
The intracellular solution contained (mM) 135 CsF, 10 NaCl, 1 EGTA, 10 HEPES (pH 7.2 with CsOH) whereas the extracellular solution (mM) 145 NaCl, 4 KCl, 0.5 MgCl2, 1 CaCl2, […], 10 Glucose (pH 7.4 with NaOH).
For data collection, the Sophion software was used and the analysis was performed off-line using Excel and GraphPad Prism.
When possible, i.e. when the % of inhibition with the highest concentration tested was more than 50%, the dose-response curves data were fitted with the following equation:
[X is log of concentration; Y is normalized response (100% down to 0%, decreasing as X increases); Log IC50 same log units as X; HillSlope is unitless slope factor or hill slope]

[2] = target: T2, human P2X4 (Homo sapiens, UniProt Q99571); assay: Human P2X4 HEK Cell FLIPR Assay; design: expressed in transfected cells; host or cells: HEK293; conditions: HEK293 cells, agonist Bz-ATP at EC80; for Emax: percentage of maximal inhibition, read-out: Human P2X4 HEK Cells (FLIPR Assay) avg Efficacy
T2 sequence (Q99571 1-388): T1 sequence (Q99571 1-388)
Method: HEK293 cells stably expressing human P2X4 were plated in poly-D-lysine-coated 384-well plates at a seeding density of 30000 cells/well and incubated overnight. P2X4 function was assessed by measuring intracellular calcium changes using the calcium-chelating dye Fluo8-AM (Molecular Devices) on a fluorescent imaging plate reader (FLEX/FLIPR station; Molecular Devices). On the day of the assay, the medium was removed and the cells were incubated for 30 min at 37° C. and 5% CO2 in 30 μL of dye buffer (Hank's balanced salt solution, 10 mM HEPES, 1.8 mM CaCl2, 1 mM MgCl2, 2 mM probenecid, 5 mM D-glucose monohydrate, 5 μM Fluo8-AM, pH=7.4). Compounds diluted in probenecid buffer (Hank's balanced salt solution, 10 mM HEPES, 1.8 mM CaCl2, 1 mM MgCl2, 2 mM probenecid, 5 mM D-glucose monohydrate, pH=7.4) were added in a volume of 10 μL and allowed to incubate for 30 min at room temperature. The final assay DMSO concentration was 0.5%. The agonist, Bz-ATP (Tocris), was added in a volume of 10 μL at a concentration representing the EC80 value. The EC80 value of Bz-ATP was determined each assay day prior to compound profiling. The fluorescence was measured for an interval of 120 sec at 2 sec intervals. The excitation and emission wavelengths used to monitor fluorescence were 470-495 nm and 515-575 nm, respectively. The data was analyzed based on the increase in peak relative fluorescence units (RFU) compared to the basal fluorescence and the data was normalized to the agonist control. The compounds were tested in triplicates per plate and mean values were plotted in Excel XL-Fit to determine IC50 values, percentage of maximal inhibition and the Hill coefficients.

[3] = target: T3, endogenous P2X4 channels (Homo sapiens, UniProt Q99571); assay: Human Monocyte P2X4 Assay (FLIPR); conditions: primary human monocytes, 3 μM BzATP, one value per donor; for IC50: read-out: Human P2X4 Monocytes (FLIPR Assay) IC50 for different donors; for Emax: read-out: Human P2X4 Monocytes (FLIPR Assay) Efficacy for different donors
T3 construct: measure calcium influx through endogenous P2X4 channels into primary human monocytes; endogenous in cells; host or cells: primary human monocytes isolated from donor PBMCs
T3 sequence (Q99571 1-388): T1 sequence (Q99571 1-388)
Method: The principle of the assay is to measure calcium influx through endogenous P2X4 channels into primary human monocytes, following activation by 2′,3′-O-(4-benzoyl-benzoyl)-ATP (Bz-ATP). Intracellular calcium concentration changes were measured with a Flipr™ (Molecular Devices) device using a calcium sensitive dye (Fluo-8). In primary monocytes P2X4 is located at the lysosome membrane, therefore exocytosis has to be triggered to expose P2X4 at the cellular membrane.
Human peripheral blood mononuclear cells (PBMCs) from anticoagulated blood (blood cells, BC) were isolated via density gradient centrifugation. Whole blood was diluted 1:3 with PBS. Samples of 30 mL were layered carefully on top of 15 mL Biocoll (BIOCHROM) in 50 mL centrifuge tubes (Falcon). Tubes were centrifuged at 914×g for 25 min at RT without brake. The PBMC layer was removed with a 10 mL pipette and transferred into tubes with ice-cold PBS in a total volume of 50 mL. Cells were washed twice by pelleting at 300×g at 4° C., for 10 min and for 5 min respectively. PBMCs were re-suspended in 10 mL medium (X-vivo, Biozym Scientific) and counted in a Neubauer chamber.
Monocytes were isolated by negative selection using the Monocyte isolation kit II from Miltenyi (#130-091-153) according to the instructions. Isolation should be done fast and cells and solutions should be kept on ice at any time. PBMCs in batches of 10exp8 cells were pelleted (300×g, 10 min) and re-suspended with 300 μL MACS buffer in a 50 mL Falcon tube. FcR Blocking reagent (100 μl) and Biotin-Ab (100 μl) were added, mixed and incubated on ice for 10 min. MACS buffer (300 μL) and anti-Biotin Micro-beads (100 μL) were added, mixed and incubated on ice for 15 min. Cells were washed by pelleting (300×g for 10 min) and re-suspended in 500 μL MACS buffer. For each batch one separation column was placed in the MACS separator and rinsed with 3 mL MACS buffer. The cell suspension was added to the column, followed by 3×3 mL MACS buffer for washing, and the eluent containing the monocytes was collected. Cells were pelleted (300×g for 10 min), re-suspended in X-vivo medium and counted. Monocytes were seeded into fibronectin-coated micro-plates (384-well, black, flat transparent bottom; Corning #3848) at a density of 30,000 cells/well in 50 μL, and cultivated over night (37° C., 5% CO2).
Test substances were dissolved in 100% DMSO at a stock concentration of 10 mM and stored at −20° C. in aliquots. Serial dilutions (2×) were prepared in DMSO and diluted 500× with assay buffer to generate the antagonist plate. In the Flipr measurement, 10 μL per well were transferred (4× dilution) and a final top concentrations of 5 μM and 0.05% DMSO were obtained in the assay. Agonist BzATP was stored at 10 mM in aliquots and diluted to an intermediate concentration of 15 μM to generate the agonist plate. In the Flipr measurement, 10 μL per well were transferred (5× dilution) so that a final assay concentration of 3 μM was obtained.
For the experiment, the medium of the cell plate was discarded manually and 70 μL/well loading buffer was added and incubated for 1 h (37° C., 5% CO2). Loading buffer contained HBSS (w/o calcium/magnesium), 10 mM Hepes pH 7.4, 5 μM Fluo-8 (AM) (Tebu-bio) and 50 mM methylamine (Sigma) to trigger exocytosis. Loading buffer was discarded manually and 30 μL/well low-calcium assay buffer (5 mM KCl, 145 mM NaCl, 0.5 mM CaCl2), 13 mM glucose, 10 mM Hepes pH 7.4) was added. The antagonist plate was transferred (10 μL/well) and after 15 min at RT the agonist plate (10 μL/well) was transferred.
Agonist addition was recorded for 240 seconds after a 10 second baseline. For analysis, a baseline correction was applied, and the maximum of the curve was extracted. Data were normalized towards 0% inhibition (signal at 3 μM BzATP) and 100% inhibition (absence of BzATP stimulation) and fitted with a four-parameter sigmoidal inhibition curve using Prism Graph Pad to obtain IC50 values.

| Structure (SMILES) | IC50 [1] | IC50 [2] | Emax [2] | IC50 [3] | Emax [3] |
| --- | --- | --- | --- | --- | --- |
| NS(=O)(=O)c1cc(NC(=O)Cc2ccccc2Cl)ccc1-c1cnn(C2CC2)c1 [Example 349, 2-(2-Chlorophenyl)-N-[4-(1-cyclopropyl-1H-pyrazol-4-yl)-3-sulfamoylphenyl]acetamide] | 117 nM | 37 nM | – | – | – |
| NS(=O)(=O)c1cc(NC(=O)Cc2ccccc2Cl)ccc1-n1cc(Br)cn1 [Example 28, N-[4-(4-Bromo-1H-pyrazol-1-yl)-3-sulfamoylphenyl]-2-(2-chlorophenyl)acetamide] | – | 31 nM | 90% | 78 nM and 164 nM | – |
| NS(=O)(=O)c1cc(NC(=O)Cc2ccccc2F)ccc1-n1cc(C(F)(F)F)cn1 [Example 20, 2-(2-Fluorophenyl)-N-{3-sulfamoyl-4-[4-(trifluoromethyl)-1H-pyrazol-1-yl]phenyl}-acetamide] | 195 nM | 140 nM | – | – | – |
| NS(=O)(=O)c1cc(NC(=O)Cc2ccccc2Cl)ccc1-c1cncc(C(F)(F)F)c1 [Example 331, 2-(2-Chlorophenyl)-N-{3-sulfamoyl-4-[5-(trifluoromethyl)pyridin-3-yl]phenyl}-acetamide] | 155 nM | 25 nM | – | – | – |

The remaining molecules from weak to strong by IC50 [2], led by results:

| IC50 [1] | IC50 [2] | Emax [2] | IC50 [3] | Emax [3] | Structure (SMILES) |
| --- | --- | --- | --- | --- | --- |
| – | 126 nM | 70% | 303 nM and 183 nM and 110 nM | 60% | COc1ccc(CC(=O)Nc2ccc(-n3cc(Cl)cn3)c(S(N)(=O)=O)c2)cc1 [Example 170, N-[4-(4-Chloro-1H-pyrazol-1-yl)-3-sulfamoylphenyl]-2-(4-methoxyphenyl)acetamide] |
| 227 nM | 87 nM | – | – | – | NS(=O)(=O)c1cc(NC(=O)Cc2ccccc2F)cnc1-c1cnn(C(F)F)c1 [Example 321, N-{6-[1-(Difluoromethyl)-1H-pyrazol-4-yl]-5-sulfamoylpyridin-3-yl}-2-(2-fluorophenyl)acetamide] |
| – | 45 nM | – | 141 nM and 34 nM and 91 nM | 79% | NS(=O)(=O)c1cc(NC(=O)Cc2ccccc2Cl)ccc1-n1cnc(Cl)n1 [Example 24, 2-(2-Chlorophenyl)-N-[4-(3-chloro-1H-1,2,4-triazol-1-yl)-3-sulfamoylphenyl]-acetamide] |
| – | 34 nM | – | 122 nM and 104 nM | 35% | NS(=O)(=O)c1cc(NC(=O)Cc2ccccc2Cl)cnc1-n1cc(Cl)cn1 [Example 387, 2-(2-Chlorophenyl)-N-[6-(4-chloro-1H-pyrazol-1-yl)-5-sulfamoylpyridin-3-yl]acetamide] |
| 222 nM | 26 nM | – | – | – | NS(=O)(=O)c1cc(NC(=O)Cc2ccccc2Cl)ccc1-n1cc(Cl)cn1 [Example 25, 2-(2-Chlorophenyl)-N-[4-(4-chloro-1H-pyrazol-1-yl)-3-sulfamoylphenyl]acetamide] |
